Consider seven molecules from US20260234211A1, “POLYPEPTIDE HAVING MODIFIED STRUCTURE AND USE THEREOF” (Guangdong Raynovent Biotech Co., Ltd., priority 2023, published 2026).

Like-named read-outs stand apart in the source and are kept apart here. Numbered stars: 1 amine (or outer) side, 2 acyl side, 3 side chain; on linkers, the order of the positions; unused ones are H or OH. Bridge positions count the residues as written; N and C are the ends. Square brackets hold non-standard residues; d marks the D form. Peptide text beside a SMILES is read from it. X2 = O=C(O)CCCCCCCCCCCCCCCCCCC(=O)N[C@@H](CCC(=O)NCCOCCOCC(=O)N[C@@H](CCC(=O)[*:2])C(=O)[*:1])C(=O)O; αMeL = CC(C)C[C@](C)(N)C(=O)O; Aib = CC(C)(N)C(=O)O

By Cmax is commonly meant the peak of the concentration-time curve. Usually Tmax stands for the time at which the peak concentration occurs.

A short description of series [1]: Metabolic stability in human kidney S9. Format: in vitro ADME. The procedure:
The metabolic stability of the compounds in human kidney was evaluated to determine whether the drugs would be degraded by metabolic enzymes in the kidney to affect the efficacies and pharmacokinetics. 1. Relevant solutions were formulated. 2. a) With cofactors (NADPH & UDPGA): NADPH and UDPGA were added during the incubation. […] H2O was added into the culture solution. The final concentration of KS9 Fractions was 1 mg/mL. The mixture was pre-heated at 37° C. for 10 min. […] In this study, 7-hydroxy-coumarin and Raloxifene were used as the positive control. The final concentration of the positive control compounds was 0.2 μM, and the final concentration of the test compound was 1 μM. The culture solution was incubated in water bath at 37° C. 4. At 0.5, 5, 15, 30 and 60 min, volume aliquots were taken from the reaction solution and the reaction was stopped by adding acetonitrile. The samples were centrifuged for 30 min. The supernatant was taken and mixed with ultrapure water for subsequent LC-MS/MS analysis. 5. Data analysis: All calculation was conducted using Microsoft Excel. Peak areas were determined and slope values were calculated based on the extracted ion chromatograms.

Series [2] in a line: Pharmacokinetic properties in Cynomolgus macaques. The following applies: cynomolgus monkey, in vivo, male cynomolgus macaques, plasma; for AUC(0-t): read-out: AUC0-240 h; for AUC(0-inf): read-out: AUCINF; for Cmax: read-out: Cmax; for half-life: read-out: T1/2 (converted); for Tmax: read-out: Tmax. As to the method: To test the pharmacokinetic profiles of the compounds in Cynomolgus macaques.
Non-juvenile male cynomolgus macaques were used for experiment, 3 cynomolgus macaques for each compound. Whole blood was collected at time points of 1 h, 2 h, 4 h, 8 h, 16 h, 24 h, 48 h, 72 h, 120 h, 168 h and 240 h after administration, to prepare plasma. The drug concentration was analyzed by LC-MS/MS method, and the pharmacokinetic parameters were calculated using Phoenix WinNonlin software.

[3] abbreviates: Human kidney S9 1 mg/mL, +Cofactors (NADPH & UDPGA), 37° C., read-out: in vitro CLint.
[4] abbreviates: Human kidney S9 1 mg/mL, +Cofactors (NADPH & UDPGA), 37° C., read-out: in vitro t1/2.

In series [1] (human, s9), `O=c1ccc2ccc(O)cc2o1` [7-Hydroxy-courmarin, 7-hydroxy-coumarin, reference compound] returned a half-life at 0.2 μM of 1.69 h and a microsomal CLint at 0.2 μM of 6.84 µL/min/mg.

Take `CC[C@H](C)[C@H](NC(=O)[C@H](Cc1ccccc1)NC(=O)[C@@H]1CCCCNC(=O)CN(C(=O)[C@@H](N)CCCCNC(=O)[C@@H](N)CCCCNC(=O)CC[C@H](NC(=O)CCCCCCCCCCCCCCCCCCC(=O)O)C(=O)O)CC(=O)NCCCC[C@H](NC(=O)[C@H](CCCCN)NC(=O)[C@H](CC(=O)O)NC(=O)[C@H](CC(C)C)NC(=O)[C@](C)(CC(C)C)NC(=O)[C@@H](NC(=O)[C@H](CO)NC(=O)[C@H](Cc2ccc(O)cc2)NC(=O)[C@H](CC(=O)O)NC(=O)[C@H](CO)NC(=O)[C@@H](NC(=O)[C@H](Cc2ccccc2)NC(=O)[C@@H](NC(=O)CNC(=O)[C@H](CCC(N)=O)NC(=O)C(C)(C)NC(=O)[C@@H](N)Cc2ccc(O)cc2)[C@@H](C)O)[C@@H](C)O)[C@@H](C)CC)C(=O)N[C@@H](C)C(=O)N[C@@H](CCC(N)=O)C(=O)NC(C)(C)C(=O)N1)C(=O)N[C@@H](CCC(=O)O)C(=O)N[C@@H](Cc1ccc(O)cc1)C(=O)N[C@@H](CC(C)C)C(=O)N[C@@H](CC(C)C)C(=O)N[C@@H](CCC(=O)O)C(=O)NCC(=O)NCC(=O)N1CCC[C@H]1C(=O)N[C@@H](CO)C(=O)N[C@@H](CO)C(=O)NCC(=O)N[C@@H](C)C(=O)N1CCC[C@H]1C(=O)N1CCC[C@H]1C(=O)N1CCC[C@H]1C(=O)N[C@@H](CO)C(N)=O` [Example 7, YAibQGT FRSDY SIα- MeLLD K^1KAQAib ^1KFIEY LLEGG PSSGA PPPS-NH2 (SEQ ID NO: 1)]: in series [2], the AUC(0-t) is 3.32 µM·h, the AUC(0-inf) came out at 3.96 µM·h, the Cmax was 24.3 nM and the half-life is 84.1 h. Also, the time to peak (Tmax) in series [2] turned out to be 29.3 h. In addition, in series [1] (setting [3]), the microsomal CLint was under 3.75 µL/min/mg. Besides, the half-life in series [1] (setting [4]) was over 3.08 h.

Turning to `CC[C@H](C)[C@H](NC(=O)[C@H](Cc1ccccc1)NC(=O)[C@@H]1CCCCNC(=O)CC[C@H](NC(=O)COCCOCCNC(=O)CC[C@H](NC(=O)CCCCCCCCCCCCCCCCCCC(=O)O)C(=O)O)C(=O)NCCCC[C@H](NC(=O)[C@H](CCCCN)NC(=O)[C@H](CC(=O)O)NC(=O)[C@H](CC(C)C)NC(=O)[C@](C)(CC(C)C)NC(=O)[C@@H](NC(=O)[C@H](CO)NC(=O)[C@H](Cc2ccc(O)cc2)NC(=O)[C@H](CC(=O)O)NC(=O)[C@H](CO)NC(=O)[C@@H](NC(=O)[C@H](Cc2ccccc2)NC(=O)[C@@H](NC(=O)CNC(=O)[C@H](CCC(N)=O)NC(=O)C(C)(C)NC(=O)[C@@H](N)Cc2ccc(O)cc2)[C@@H](C)O)[C@@H](C)O)[C@@H](C)CC)C(=O)N[C@@H](C)C(=O)N[C@@H](CCC(N)=O)C(=O)NC(C)(C)C(=O)N1)C(=O)N[C@@H](CCC(=O)O)C(=O)N[C@@H](Cc1ccc(O)cc1)C(=O)N[C@@H](CC(C)C)C(=O)N[C@@H](CC(C)C)C(=O)N[C@@H](CCC(=O)O)C(=O)NCC(=O)NCC(=O)N1CCC[C@H]1C(=O)N[C@@H](CO)C(=O)N[C@@H](CO)C(=O)NCC(=O)N[C@@H](C)C(=O)N1CCC[C@H]1C(=O)N1CCC[C@H]1C(=O)N1CCC[C@H]1C(=O)N[C@@H](CO)C(N)=O` [Example 8, YAibQGT FTSDY SIα- MeLLD K^1KAQAib ^1KFIEY LLEGG PSSGA PPPS-NH2 (SEQ ID NO: 1)] (H-Y[Aib]QGTFTSDYSI[αMeL]LDKKAQ[Aib]KFIEYLLEGGPSSGAPPPS-NH2; linker 17-21 via X2 (inferred); N-terminus assumed), in series [1] (human, s9), the half-life was over 3.08 h and the microsomal CLint is under 3.75 µL/min/mg.

Take `CC[C@H](C)[C@H](NC(=O)[C@H](Cc1ccccc1)NC(=O)[C@@H]1CCCCNC(=O)CN(C(=O)COCCOCCNC(=O)CC[C@H](NC(=O)CCCCCCCCCCCCCCCCCCC(=O)O)C(=O)O)CC(=O)NCCCC[C@H](NC(=O)[C@H](CCCCN)NC(=O)[C@H](CC(=O)O)NC(=O)[C@H](CC(C)C)NC(=O)[C@](C)(CC(C)C)NC(=O)[C@@H](NC(=O)[C@H](CO)NC(=O)[C@H](Cc2ccc(O)cc2)NC(=O)[C@H](CC(=O)O)NC(=O)[C@H](CO)NC(=O)[C@@H](NC(=O)[C@H](Cc2ccccc2)NC(=O)[C@@H](NC(=O)CNC(=O)[C@H](CCC(N)=O)NC(=O)C(C)(C)NC(=O)[C@@H](N)Cc2ccc(O)cc2)[C@@H](C)O)[C@@H](C)O)[C@@H](C)CC)C(=O)N[C@@H](C)C(=O)N[C@@H](CCC(N)=O)C(=O)NC(C)(C)C(=O)N1)C(=O)N[C@@H](CCC(=O)O)C(=O)N[C@@H](Cc1ccccc1)C(=O)N[C@@H](CC(C)C)C(=O)N[C@@H](CC(C)C)C(=O)N[C@@H](CCC(=O)O)C(=O)NCC(=O)NCC(=O)N1CCC[C@H]1C(=O)N[C@@H](CO)C(=O)N[C@@H](CO)C(=O)NCC(=O)N[C@@H](C)C(=O)N1CCC[C@H]1C(=O)N1CCC[C@H]1C(=O)N1CCC[C@H]1C(=O)N[C@@H](CO)C(N)=O` [Example 9, YAibQGT FTSDY SIα- MeLLD K^1KAQAib ^1KFIEF LLEGG PSSGA PPPS-NH2 (SEQ ID NO: 15)]: in series [2], the AUC(0-t) was 3.23 µM·h, the AUC(0-inf) is 3.64 µM·h, the Cmax came to 30.1 nM and the half-life was 77.4 h. Besides, the Tmax in series [2] came out at 29.3 h.

With `CC[C@H](C)[C@@H]1NC(=O)[C@H](Cc2ccccc2)NC(=O)[C@H](C)NC(=O)C(C)(C)NC(=O)[C@H](CCC(N)=O)NC(=O)[C@H](C)NC(=O)[C@@H](NC(=O)[C@H](CCCCN)NC(=O)[C@H](CC(=O)O)NC(=O)[C@H](CC(C)C)NC(=O)[C@](C)(CC(C)C)NC(=O)[C@@H](NC(=O)[C@H](CO)NC(=O)[C@H](Cc2ccc(O)cc2)NC(=O)[C@H](CC(=O)O)NC(=O)[C@H](CO)NC(=O)[C@@H](NC(=O)[C@H](Cc2ccccc2)NC(=O)[C@@H](NC(=O)CNC(=O)[C@H](CCC(N)=O)NC(=O)C(C)(C)NC(=O)[C@@H](N)Cc2ccc(O)cc2)[C@@H](C)O)[C@@H](C)O)[C@@H](C)CC)CCCCNC(=O)CN(C(=O)COCCOCCNC(=O)COCCOCCNC(=O)CC[C@H](NC(=O)CCCCCCCCCCCCCCCCCCC(=O)O)C(=O)O)CC(=O)NCCCC[C@@H](C(=O)N[C@@H](Cc2ccc(O)cc2)C(=O)N[C@@H](CC(C)C)C(=O)N[C@@H](CC(C)C)C(=O)N[C@@H](CCC(=O)O)C(=O)NCC(=O)NCC(=O)N2CCC[C@H]2C(=O)N[C@@H](CO)C(=O)N[C@@H](CO)C(=O)NCC(=O)N[C@@H](C)C(=O)N2CCC[C@H]2C(=O)N2CCC[C@H]2C(=O)N2CCC[C@H]2C(=O)N[C@@H](CO)C(N)=O)NC1=O` [Example 11, YAibQGT FTSDY SIα- MeLLD K^1KAQAib AFI^1KY LLEGG PSSGA PPPS-NH2 (SEQ ID NO: 17)], in series [1] (human, s9), the half-life at 1 μM was over 3.08 h and the microsomal CLint at 1 μM is under 3.75 µL/min/mg.

With `CC[C@H](C)[C@H](NC(=O)[C@H](Cc1ccccc1)NC(=O)[C@H](C)NC(=O)C(C)(C)NC(=O)[C@H](CCC(N)=O)NC(=O)[C@H](C)NC(=O)[C@@H]1CCCCNC(=O)CN(C(=O)COCCOCCNC(=O)CC[C@H](NC(=O)CCCCCCCCCCCCCCCCCCC(=O)O)C(=O)O)CC(=O)NCCCC[C@H](NC(=O)[C@](C)(CC(C)C)NC(=O)[C@@H](NC(=O)[C@H](CO)NC(=O)[C@H](Cc2ccc(O)cc2)NC(=O)[C@H](CC(=O)O)NC(=O)[C@H](CO)NC(=O)[C@@H](NC(=O)[C@H](Cc2ccccc2)NC(=O)[C@@H](NC(=O)CNC(=O)[C@H](CCC(N)=O)NC(=O)C(C)(C)NC(=O)[C@@H](N)Cc2ccc(O)cc2)[C@@H](C)O)[C@@H](C)O)[C@@H](C)CC)C(=O)N[C@@H](CC(=O)O)C(=O)N[C@@H](CCCCN)C(=O)N1)C(=O)N[C@@H](CCC(=O)O)C(=O)N[C@@H](Cc1ccc(O)cc1)C(=O)N[C@@H](CC(C)C)C(=O)N[C@@H](CC(C)C)C(=O)N[C@@H](CCC(=O)O)C(=O)NCC(=O)NCC(=O)N1CCC[C@H]1C(=O)N[C@@H](CO)C(=O)N[C@@H](CO)C(=O)NCC(=O)N[C@@H](C)C(=O)N1CCC[C@H]1C(=O)N1CCC[C@H]1C(=O)N1CCC[C@H]1C(=O)N[C@@H](CO)C(N)=O` [Example 21, YAibQGT FTSDY SIα- MeL^1KD K^1KAQAib AFIEY LLEGG PSSGA PPPS-NH2 (SEQ ID NO: 24)], in series [2], the AUC(0-t) stood at 4.6 µM·h, the AUC(0-inf) turned out to be 5.94 µM·h, the Cmax was determined as 31.2 nM and the half-life was 105 h. Moreover, the Tmax in series [2] amounted to 40 h. Also, the microsomal CLint at 1 μM in series [1] (setting [3]) was under 3.75 µL/min/mg. In series [1] (setting [4]), the half-life at 1 μM is over 3.08 h.

In series [1] (human, s9), `O=C(c1ccc(OCCN2CCCCC2)cc1)c1c(-c2ccc(O)cc2)sc2cc(O)ccc12` [Raloxifene, reference compound] had a half-life at 0.2 μM of 1.56 h and a microsomal CLint at 0.2 μM of 7.77 µL/min/mg.
